Reference: article PMC11647907 (Journal of Medicinal Chemistry, 2024)

How the values were obtained:
ClpP [1] = molecular target: T1, ClpP (Homo sapiens, UniProt Q16740); assay: In vitro enzyme assay: ClpP peptidase activity with AC-WLA-AMC; assay type: biochemical; settings: for EC50: EC50 (ClpP proteolytic activity), mean ± SD, n = 3
HL60 cells [2] = assay: Growth inhibition assay; assay type: cell-based
[3] = Liver microsomal stability, human; assay type: in vitro ADME; settings: human liver microsomes
[4] = Liver microsomal stability, rat; assay type: in vitro ADME; settings: rat liver microsomes
PK study, oral 50 mg/kg = assay type: in vivo, ICR mice
ClpP [5] = molecular target: T1, ClpP; assay: Biolayer interferometry; assay type: binding
ClpP in HL60 cells = ClpP in HL60 cells (Homo sapiens, UniProt Q16740); assay: Cellular thermal shift assay; assay type: cell-based; settings: 10 μM, 6 h, vs control group
ClpP in MOLM13 cells = ClpP in MOLM13 cells (Homo sapiens, UniProt Q16740); assay: Cellular thermal shift assay; assay type: cell-based; settings: 10 μM, 6 h, vs control group
[6] = system: SDHB and NDUFA12 in HL60 cells; assay: Western blotting of respiratory chain proteins, HL60; assay type: cell-based; settings: 36 h
[7] = system: SDHB and NDUFA12 in MOLM13 cells; assay: Western blotting of respiratory chain proteins, MOLM13; assay type: cell-based; settings: 36 h
HL60 cells [8] = assay: Mitochondrial ROS; assay type: cell-based; settings: HL60, 5 nM, 38 h, vs DMSO group
MOLM13 cells [9] = assay: Mitochondrial ROS; assay type: cell-based; settings: MOLM13, 38 h
HL60 cells [10] = assay: Mitochondrial membrane potential; assay type: cell-based; settings: HL60, 10 nM, 48 h, vs DMSO group
MOLM13 cells [11] = assay: Mitochondrial membrane potential; assay type: cell-based; settings: MOLM13, 10 nM, 48 h, vs DMSO group
HL60 cells [12] = assay: Cell cycle analysis; assay type: cell-based; settings: 24 h
MOLM13 cells [13] = assay: Cell cycle analysis; assay type: cell-based; settings: MOLM13, 24 h
MOLM13 cells [14] = assay: MOLM13-disseminated leukemia model, survival; assay type: in vivo, NSG mice; settings: 10 mg/kg, p.o, qd, 18 days
HL60 cells [15] = assay: HL60-disseminated leukemia model, survival; assay type: in vivo, NSG mice
[16] = Liver microsomal stability, mice; assay type: in vitro ADME
[17] = female, ICR, mouse, plasma, po, 50 mg/kg

T1 sequence (Q16740 57-277): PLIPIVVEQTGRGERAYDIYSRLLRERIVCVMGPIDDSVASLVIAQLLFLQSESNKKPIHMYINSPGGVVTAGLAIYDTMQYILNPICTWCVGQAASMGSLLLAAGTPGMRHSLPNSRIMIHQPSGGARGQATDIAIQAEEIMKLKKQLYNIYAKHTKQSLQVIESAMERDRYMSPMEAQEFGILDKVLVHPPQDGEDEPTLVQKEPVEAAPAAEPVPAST
ClpP in MOLM13 cells, sequence (Q16740 57-277): as above
ClpP in HL60 cells, sequence (Q16740 57-277): as above

## C[C@@H]1CC2=C(CN1Cc1cccc(C#N)c1)C(=O)N(Cc1ccc(Br)cc1)C1=NCCN12 [CLPP-1071, (R)-3-((4-(4-Bromobenzyl)-8-methyl-5-oxo-1,2,4,5,8,9-hexahydroimidazo[1,2-a]pyrido[3,4-e]pyrimidin-7(6H)-yl)methyl)benzonitrile]
ClpP [1]
  EC50: 23.5 nM
ClpP [1]; vs ONC201
  ClpP agonistic activity, fold stronger than ONC201: 107.1 fold
HL60 cells [2]; read-out: HL60 IC50, HL60 cells, 72 h, mean ± SD, n = 3, listed as 52a
  IC50: 4.61 ± 0.21 nM
HL60 cells [2]; vs ONC201
  inhibition of proliferation of HL60 cells, fold stronger than ONC201: 169.2 fold
[3]
  Clapp: 296 mL/min/kg
  Clh: 19.3 mL/min/kg
  Eh (%): 93.5%
  half-life: 13.7 min
[4]
  Clapp: 906 mL/min/kg
  Clh: 52.0 mL/min/kg
  Eh (%): 94.3%
  half-life: 6.89 min
PK study, oral 50 mg/kg; PO 50 mg/kg, mice
  AUC0–∞, times higher than that of ONC212: approximately 1.5 times
PK study, oral 50 mg/kg; [17]
  AUC(0-inf): 9840 ± 990 ng·h/mL
  AUC(0-t): 9010 ± 1320 ng·h/mL
  Cmax: 3420 ± 570 ng/mL
  MRT: 157 ± 24.6 min
  Tmax: 30 ± 25.8 min
  half-life: 87 ± 19.8 min
ClpP [5]
  Kd: 26.9 nM
ClpP in HL60 cells
  thermal stability of ClpP (CETSA): effectively stabilized ClpP protein at higher temperatures
ClpP in MOLM13 cells
  thermal stability of ClpP (CETSA): effectively stabilized ClpP protein at higher temperatures
[6]; HL60, 1 nM
  SDHB and NDUFA12 protein levels: decreased
[6]; HL60, 10 nM
  SDHB and NDUFA12 protein levels: mostly disappeared
[7]; MOLM13, 1 nM
  SDHB and NDUFA12 protein levels: decreased
[7]; MOLM13, 10 nM
  SDHB and NDUFA12 protein levels: mostly disappeared
HL60 cells [8]
  ROS accumulation: pronounced elevation in ROS accumulation
MOLM13 cells [9]
  ROS levels: significant increase in the ROS levels
HL60 cells [10]
  mitochondrial membrane potential (MMP): significantly decreased MMP
MOLM13 cells [11]
  mitochondrial membrane potential (MMP): significantly decreased MMP
HL60 cells [12]; HL60, 10 nM
  percentage of cells arrested in G1: 50%
HL60 cells [12]; HL60, 100 nM
  percentage of cells arrested in G1: 60%
MOLM13 cells [13]; higher dose (dose not given)
  percentage of cells arrested in G1: 73%
MOLM13 cells [13]; lower dose (dose not given)
  percentage of cells arrested in G1: 65%
MOLM13 cells [14]
  survival of female NSG mice: extended the survival
HL60 cells [15]; HL60 model, 5 and 10 mg/kg, p.o, qd, 19 days
  survival of female NSG mice: dose-dependently extended the survival
HL60 cells [15]; disseminated model, 5 mg/kg, stronger effects compared to 10 mg/kg ONC212
  survival periods in mice: significantly prolonged survival periods

## CC1CN(Cc2ccccc2)CC2=C1N1CCN=C1N(Cc1ccc(C(F)(F)F)cc1)C2=O (stereo not shown) [compound 4]
ClpP [1]
  EC50: 1410 ± 20.5 nM

## CC(c1ccc(C(F)(F)F)cc1)N1C(=O)C2=C(CCN(Cc3ccccc3)C2)N2CCN=C21 (stereo not shown) [compound 3]
ClpP [1]
  EC50: 2659 ± 11.7 nM

## CC1(C)CN(Cc2ccccc2)CC2=C1N1CCN=C1N(Cc1ccc(C(F)(F)F)cc1)C2=O [compound 5]
ClpP [1]
  EC50: 1650 ± 84.5 nM

## C[C@]12CC[C@H]3[C@@H](CCC4=CC(=O)CC[C@@]43C)[C@@H]1CC[C@@H]2O [testosterone, reference compound]
[3]
  Clapp: 467 mL/min/kg
  Clh: 19.8 mL/min/kg
  Eh (%): 95.8%
[16]; mice liver microsomes
  Clapp: 8634 mL/min/kg
  Clh: 54.8 mL/min/kg
  Eh (%): 99.4%
[16]; mouse, liver microsomes
  half-life: 0.723 min
[4]
  Clapp: 8634 mL/min/kg
  Clh: 54.8 mL/min/kg
  Eh (%): 99.4%
  half-life: 0.723 min

## CC(c1ccccc1)N1CCC2=C(C1)C(=O)N(Cc1ccc(C(F)(F)F)cc1)C1=NCCN12 (stereo not shown) [compound 2]
ClpP [1]
  EC50: 193 ± 18.9 nM
